The target of one assay is T1, Cloned Human Dopamine D3 Receptors (Homo sapiens, UniProt P35462).
T1 construct: expressed in transfected cells; membrane homogenate
T1 sequence (P35462 whole entry): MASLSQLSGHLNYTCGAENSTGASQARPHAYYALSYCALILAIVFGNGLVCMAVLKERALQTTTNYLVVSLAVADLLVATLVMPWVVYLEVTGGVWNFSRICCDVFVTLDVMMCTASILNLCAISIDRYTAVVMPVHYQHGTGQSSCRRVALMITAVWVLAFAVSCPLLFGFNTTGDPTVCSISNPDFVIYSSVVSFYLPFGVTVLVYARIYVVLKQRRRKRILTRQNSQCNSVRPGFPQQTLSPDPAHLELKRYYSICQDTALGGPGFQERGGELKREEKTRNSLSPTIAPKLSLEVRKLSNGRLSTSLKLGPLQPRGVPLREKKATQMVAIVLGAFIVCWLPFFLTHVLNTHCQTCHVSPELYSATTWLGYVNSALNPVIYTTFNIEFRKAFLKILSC
As to the kind of experiment: [N-Methyl-3H]Spiroperidol binding to cloned human dopamine D3 receptors. To be noted: Table 2; unit inferred; read-out: d3Ki. The gist of the method:
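[N-methyl-3H]spiroperidol binding is run in Tris buffer, pH 7.7. Receptor source is membranes of a stably transfected, high-expressing CHO clone carrying the human D3 gene, kept at -80°C in 10% DMSO.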
With `CC1[C@@H](CN2CCN(c3csc4cc(C(F)(F)F)ccc34)CC2)[C@@H]1C(=O)NCC1CC1` (stereo partly shown) [compound 825872], the Ki came to 104 nM. On the same count and under the same terms, the result for `C[C@@]1(C(=O)NCc2ccc3ccccc3c2)C[C@H]1CN1CCN(c2csc3cc(C(F)(F)F)ccc23)CC1` [compound 825882] reads 186 nM. Consider `C[C@@]1(C(=O)NCc2ccc3c(c2)OCO3)C[C@H]1CN1CCN(c2csc3cc(C(F)(F)F)ccc23)CC1` [compound 825886], for which the Ki stood at 40.2 nM. Still for that read-out and setting: the result for `C[C@@]1(C(=O)NCc2nc3ccccc3[nH]2)C[C@H]1CN1CCN(c2csc3cc(C(F)(F)F)ccc23)CC1` [compound 825887] reads 90.4 nM; that for `COc1cc(CNC(=O)[C@]2(C)C[C@H]2CN2CCN(c3csc4cc(C(F)(F)F)ccc34)CC2)cc(OC)c1OC` [compound 825888], 89.4 nM. As for `C[C@@]1(C(=O)NC2CC2)C[C@H]1CN1CCN(c2csc3cc(C(F)(F)F)ccc23)CC1` [compound 825893], the Ki stood at 73.8 nM. Same read-out and setting: for `CN(C)c1ccc(CNC(=O)[C@]2(C)C[C@H]2CN2CCN(c3csc4cc(C(F)(F)F)ccc34)CC2)cc1` [compound 825894] the value was 59 nM. Same read-out and setting: the result for `C[C@@]1(C(=O)NCC2CC2)C[C@H]1CN1CCN(c2csc3cc(C(F)(F)F)ccc23)CC1` [compound 825895] reads 31.7 nM. As to `C[C@@]1(C(=O)NCc2ccccc2)C[C@H]1CN1CCN(c2csc3cc(C(F)(F)F)ccc23)CC1` [compound 825896], the Ki was 53.3 nM.

Regarding `C[C@@]1(C(=O)NCc2ccco2)C[C@H]1CN1CCN(c2csc3cc(C(F)(F)F)ccc23)CC1` [compound 825897], the Ki turned out to be 140 nM. With `C[C@@]1(C(=O)NCc2cccs2)C[C@H]1CN1CCN(c2csc3cc(C(F)(F)F)ccc23)CC1` [compound 825898], the Ki was found to be 49 nM.

Consider `C[C@@]1(C(=O)NCc2ccc(C(F)(F)F)cc2)C[C@H]1CN1CCN(c2csc3cc(C(F)(F)F)ccc23)CC1` [compound 825899], for which the Ki is 42.9 nM. The same measure, in the same setting: for `O=C(NCc1ccccn1)[C@@H]1C[C@H]1CN1CCN(c2csc3cc(C(F)(F)F)ccc23)CC1` [compound 826065] the value was 175 nM; for `CN(C)c1ccc(CNC(=O)[C@@H]2C[C@H]2CN2CCN(c3csc4cc(C(F)(F)F)ccc34)CC2)cc1` [compound 826066], 60.3 nM. For `O=C(NCC1CC1)[C@@H]1C[C@H]1CN1CCN(c2csc3cc(C(F)(F)F)ccc23)CC1` [compound 826067], the Ki stood at 19.3 nM. With `O=C(NCc1ccccc1)[C@@H]1C[C@H]1CN1CCN(c2csc3cc(C(F)(F)F)ccc23)CC1` [compound 826068], the Ki is 54.6 nM.

On to `O=C(NCc1ccco1)[C@@H]1C[C@H]1CN1CCN(c2csc3cc(C(F)(F)F)ccc23)CC1` [compound 826069], for which the Ki was 27.2 nM.

Turning to `O=C(NCc1cccs1)[C@@H]1C[C@H]1CN1CCN(c2csc3cc(C(F)(F)F)ccc23)CC1` [compound 826070], the Ki was determined as 12.6 nM. On the same count and under the same terms, for `O=C(NCc1ccc(C(F)(F)F)cc1)[C@@H]1C[C@H]1CN1CCN(c2csc3cc(C(F)(F)F)ccc23)CC1` [compound 826071] the value was 165 nM; for `Cc1cccc(CNC(=O)[C@@H]2C[C@H]2CN2CCN(c3csc4cc(C(F)(F)F)ccc34)CC2)c1` [compound 826072], 62.6 nM. On to `O=C(NC1CCC1)[C@@H]1C[C@H]1CN1CCN(c2csc3cc(C(F)(F)F)ccc23)CC1` [compound 826073], for which the Ki stood at 32.3 nM.

With `C[C@H](NC(=O)[C@@H]1C[C@H]1CN1CCN(c2csc3cc(C(F)(F)F)ccc23)CC1)c1ccccc1` [compound 826074], the Ki is 72.6 nM. On the same count and under the same terms, for `O=C(NCc1cccc2ccccc12)[C@@H]1C[C@H]1CN1CCN(c2csc3cc(C(F)(F)F)ccc23)CC1` [compound 826075] the value was 55.6 nM; for `O=C(NC1CCCCC1)[C@@H]1C[C@H]1CN1CCN(c2csc3cc(C(F)(F)F)ccc23)CC1` [compound 826076], 15 nM; for `COc1ccc(CNC(=O)[C@@H]2C[C@H]2CN2CCN(c3csc4cc(C(F)(F)F)ccc34)CC2)c(OC)c1` [compound 826077], 88.9 nM. On the same count and under the same terms, for `O=C(Nc1cccc2c1CCCC2)[C@@H]1C[C@H]1CN1CCN(c2csc3cc(C(F)(F)F)ccc23)CC1` [compound 826078] the value was 162 nM; for `COc1cc(CNC(=O)[C@@H]2C[C@H]2CN2CCN(c3csc4cc(C(F)(F)F)ccc34)CC2)cc(OC)c1OC` [compound 826079], 106 nM. With `O=C(NCCc1ccccn1)[C@@H]1C[C@H]1CN1CCN(c2csc3cc(C(F)(F)F)ccc23)CC1` [compound 826080], the Ki turned out to be 14.8 nM. Consider `O=C(NC1CCCCCCCC1)[C@@H]1C[C@H]1CN1CCN(c2csc3cc(C(F)(F)F)ccc23)CC1` [compound 826655], for which the Ki is 31 nM. `O=C(NCCN1CCOCC1)[C@@H]1C[C@H]1CN1CCN(c2csc3cc(C(F)(F)F)ccc23)CC1` [compound 826656]: the Ki is 45 nM. As for `O=C(NC1CCCC1)[C@@H]1C[C@H]1CN1CCN(c2csc3cc(C(F)(F)F)ccc23)CC1` [compound 826658], the Ki is 17 nM.

The assay is the same for the next values; noted with them: Table 2 part the 10th table; read-out: d3Ki.
In the case of `C[C@@]1(C(=O)N2CCCCC2)C[C@H]1CN1CCN(c2csc3cc(C(F)(F)F)ccc23)CC1` [compound 825891], the Ki was determined as 118 nM. Same read-out and setting: for `O=C([C@@H]1CCC[C@H]1N1CCN(c2csc3cc(F)ccc23)CC1)N1CCCCC1` [compound 826056] the value was 5.4 nM; for `O=C([C@@H]1C[C@H]1CN1CCN(c2csc3cc(C(F)(F)F)ccc23)CC1)N1CCCCC1` [compound 826081], 18.6 nM. On to `O=C([C@@H]1CCCC[C@@H]1CN1CCN(c2csc3cc(C(F)(F)F)ccc23)CC1)N1CCCCC1` [compound 826119], for which the Ki was 219 nM. Same read-out and setting: for `O=C([C@@H]1C[C@H]1CN1CCN(c2csc3cc(C(F)(F)F)ccc23)CC1)N1CCCC1` [compound 826657] the value was 14 nM. As to `CCOC(=O)C1CN(C(=O)[C@@H]2C[C@H]2CN2CCN(c3csc4cc(C(F)(F)F)ccc34)CC2)CCC1=O` (stereo partly shown) [compound 826659], the Ki amounted to 140 nM. Turning to `O=C([C@@H]1C[C@H]1CN1CCN(c2csc3cc(C(F)(F)F)ccc23)CC1)N1CCC(O)CC1` [compound 826660], the Ki is 53 nM. As for `NC(=O)C1CCN(C(=O)[C@@H]2C[C@H]2CN2CCN(c3csc4cc(C(F)(F)F)ccc34)CC2)CC1` [compound 826661], the Ki stood at 25 nM.

The assay is the same for the next values; noted with them: read-out: d3Ki.
Consider `Cc1cccc(CNC(=O)[C@@H]2CCC[C@H]2N2CCN(c3csc4cc(F)ccc34)CC2)c1` [compound 825900], for which the Ki stood at 22.4 nM.

For `O=C(NC1CCC1)[C@@H]1CCC[C@H]1N1CCN(c2csc3cc(F)ccc23)CC1` [compound 826057], the Ki turned out to be 90.9 nM. Same read-out and setting: the result for `CC(NC(=O)[C@@H]1CCC[C@H]1N1CCN(c2csc3cc(F)ccc23)CC1)c1ccccc1` (stereo partly shown) [compound 826058] reads 45.2 nM; that for `O=C(NCc1cccc2ccccc12)[C@@H]1CCC[C@H]1N1CCN(c2csc3cc(F)ccc23)CC1` [compound 826059], 27.1 nM; that for `O=C(NC1CCCCC1)[C@@H]1CCC[C@H]1N1CCN(c2csc3cc(F)ccc23)CC1` [compound 826060], 40.2 nM. Same read-out and setting: for `CN(C)c1ccc(CNC(=O)[C@@H]2CCCC[C@H]2CN2CCN(c3csc4cc(C(F)(F)F)ccc34)CC2)cc1` [compound 826086] the value was 103 nM; for `Cc1cccc(CNC(=O)[C@@H]2CCCC[C@H]2CN2CCN(c3csc4cc(C(F)(F)F)ccc34)CC2)c1` [compound 826092], 293 nM. With `O=C(NCc1ccc2c(c1)OCO2)[C@@H]1CCCC[C@H]1CN1CCN(c2csc3cc(C(F)(F)F)ccc23)CC1` [compound 826098], the Ki came to 451 nM.

Turning to `O=C(Nc1cccnc1)[C@@H]1CCCC[C@H]1CN1CCN(c2csc3cc(C(F)(F)F)ccc23)CC1` [compound 826100], the Ki is 193 nM.

For `O=C(NCc1nc2ccccc2[nH]1)[C@@H]1CCCC[C@@H]1CN1CCN(c2csc3cc(C(F)(F)F)ccc23)CC1` [compound 826102], the Ki is 210 nM.

Consider `CN(C)c1ccc(CNC(=O)[C@@H]2CCCC[C@@H]2CN2CCN(c3csc4cc(C(F)(F)F)ccc34)CC2)cc1` [compound 826104], for which the Ki turned out to be 16.8 nM. Regarding `O=C(NC1CC1)[C@@H]1CCCC[C@@H]1CN1CCN(c2csc3cc(C(F)(F)F)ccc23)CC1` [compound 826105], the Ki turned out to be 690 nM. `O=C(NCc1ccccc1)[C@@H]1CCCC[C@@H]1CN1CCN(c2csc3cc(C(F)(F)F)ccc23)CC1` [compound 826106]: the Ki is 230 nM. Same read-out and setting: the result for `O=C(NCc1ccc(C(F)(F)F)cc1)[C@@H]1CCCC[C@@H]1CN1CCN(c2csc3cc(C(F)(F)F)ccc23)CC1` [compound 826108] reads 100 nM. Regarding `O=C(NC1CCCCC1)[C@@H]1CCCC[C@@H]1CN1CCN(c2csc3cc(C(F)(F)F)ccc23)CC1` [compound 826113], the Ki was 200 nM. In the case of `O=C(NCc1ccc2c(c1)OCO2)[C@@H]1CCCC[C@@H]1CN1CCN(c2csc3cc(C(F)(F)F)ccc23)CC1` [compound 826115], the Ki amounted to 72.3 nM.

In the case of `COc1cc(CNC(=O)[C@@H]2CCCC[C@@H]2CN2CCN(c3csc4cc(C(F)(F)F)ccc34)CC2)cc(OC)c1OC` [compound 826116], the Ki came to 59.9 nM. Still for that read-out and setting: for `O=C(NCCc1ccccn1)[C@@H]1CCCC[C@@H]1CN1CCN(c2csc3cc(C(F)(F)F)ccc23)CC1` [compound 826117] the value was 241 nM; for `O=C(Nc1cccnc1)[C@@H]1CCCC[C@@H]1CN1CCN(c2csc3cc(C(F)(F)F)ccc23)CC1` [compound 826118], 568 nM. Still for that read-out and setting: the result for `O=C(NCc1ccccn1)[C@@H]1CCCC[C@H]1CN1CCN(c2csc3cc(C(F)(F)F)ccc23)CC1` [compound 826120] reads 487 nM.

For `O=C(NC1CC1)[C@@H]1CCCC[C@H]1CN1CCN(c2csc3cc(C(F)(F)F)ccc23)CC1` [compound 826121], the Ki came to 502 nM. Regarding `O=C(NCc1ccco1)[C@@H]1CCCC[C@@H]1CN1CCN(c2csc3cc(C(F)(F)F)ccc23)CC1` [compound 826122], the Ki stood at 130 nM.
